Some test systems named below: A498 renal; HL-60(TB) leukemia; HS 578T breast; NCI-H23 lung; OVCAR-3 ovarian; OVCAR-5 ovarian; SK-MEL-28 melanoma; T-47D breast; U251 CNS; UACC-257 melanoma.
Common to all, as to assay: inhibition of tumour cell growth, NCI panel, 48 h

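Values below derive from 48-hour exposures of cells grown in 96-well plates, with endpoints linearly interpolated between the two concentrations bracketing the appropriate inhibition level. GI50: concentration for 50% inhibition of growth. Definition used: TGI = concentration required for complete inhibition of growth.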 Where only a bound is given, the exact number is not on record here.

For `Cn1cc(-c2nc(-c3cn(C)c4ncccc34)cs2)c2cc(F)ccc21`, the GI50 with A498 renal was 1.91 µM; in the test with HL-60(TB) leukemia, 1.67 µM; with HS 578T breast it was 5.1 µM; in the test with NCI-H23 lung, 2.76 µM; in the test with OVCAR-3 ovarian it was 0.379 µM; with OVCAR-5 ovarian, 3.54 µM. Further, the GI50 in the test on SK-MEL-28 melanoma was 2.42 µM; with T-47D breast, 0.648 µM; in the test on U251 CNS it was 1.55 µM; in the test on UACC-257 melanoma it was 6.33 µM. For the same compound, the TGI is 31.3 µM in the test on A498 renal; 88.7 µM in the test on HL-60(TB) leukemia; above 100 µM in the test with HS 578T breast; above 100 µM in the test with NCI-H23 lung; 2.24 µM in the test with OVCAR-3 ovarian; above 100 µM in the test with OVCAR-5 ovarian. For the same compound, the TGI was above 100 µM with SK-MEL-28 melanoma, 23.2 µM in the test with T-47D breast, above 100 µM in the test with U251 CNS and above 100 µM in the test on UACC-257 melanoma.

For `Cc1ccc(S(=O)(=O)N2C/C(=C\c3cc(F)cc(F)c3)C(=O)/C(=C/c3cc(F)cc(F)c3)C2)cc1`, the GI50 is 1.57 µM with A498 renal; 0.243 µM with HL-60(TB) leukemia; 0.513 µM in the test on HS 578T breast; 1.14 µM with NCI-H23 lung; 0.408 µM in the test with OVCAR-3 ovarian; 0.713 µM with OVCAR-5 ovarian. The GI50 was 0.388 µM with SK-MEL-28 melanoma, 1.77 µM in the test on T-47D breast, 0.178 µM in the test with U251 CNS and 0.583 µM in the test on UACC-257 melanoma. For the same compound, the TGI in the test on A498 renal is 3.41 µM; in the test on HL-60(TB) leukemia, 1.05 µM; with HS 578T breast it was above 43.1 µM; in the test with NCI-H23 lung, 4.14 µM; in the test with OVCAR-3 ovarian, 1.27 µM; in the test on OVCAR-5 ovarian, 2.28 µM. For the same compound, the TGI in the test on SK-MEL-28 melanoma was determined as 1.32 µM; in the test on T-47D breast, 6.59 µM; in the test on U251 CNS, 0.452 µM; with UACC-257 melanoma, 2.33 µM.

On to `O=C(O)c1cn(C2CC2)c2cc(N3CCN(C(=O)Nc4nc(-c5ccc(Cl)cc5)cs4)CC3)c(F)cc2c1=O`, for which the GI50 with A498 renal was 1.47 µM; in the test with HL-60(TB) leukemia it was 1.47 µM; in the test with HS 578T breast it was 1.91 µM; in the test on NCI-H23 lung it was 2.08 µM; with OVCAR-3 ovarian, 2.38 µM; with OVCAR-5 ovarian it was 3.4 µM. The GI50 in the test on SK-MEL-28 melanoma was 0.701 µM; in the test with T-47D breast, 1.65 µM; in the test on U251 CNS, 1.38 µM; in the test with UACC-257 melanoma, 2.92 µM. In addition, the TGI in the test with A498 renal is 9.46 µM; in the test with HL-60(TB) leukemia, 4.76 µM; in the test with HS 578T breast it was 66.1 µM; in the test with NCI-H23 lung it was 39.5 µM; with OVCAR-3 ovarian it was 34.6 µM; in the test with OVCAR-5 ovarian it was above 100 µM. Further, the TGI in the test on SK-MEL-28 melanoma is above 100 µM; in the test on T-47D breast, above 100 µM; with U251 CNS it was 16.1 µM; in the test on UACC-257 melanoma, 8.24 µM.

In the case of `COc1ccc2cc(C(=O)/C=C/c3ccccc3OC)ccc2c1`, the GI50 in the test with A498 renal was 6.45 µM; with HL-60(TB) leukemia, 2.55 µM; with HS 578T breast it was 4.18 µM; with NCI-H23 lung it was 5.02 µM; in the test on OVCAR-3 ovarian, 0.821 µM; with OVCAR-5 ovarian it was 18.4 µM. In addition, the GI50 in the test on SK-MEL-28 melanoma was 21.3 µM; with T-47D breast, 2.58 µM; with U251 CNS, 4.33 µM; in the test on UACC-257 melanoma, 9.78 µM. The TGI in the test with A498 renal was found to be 30.7 µM; with HL-60(TB) leukemia, 8.14 µM; in the test with HS 578T breast it was 98.9 µM; in the test on NCI-H23 lung it was 23.3 µM; in the test with OVCAR-3 ovarian, 3.77 µM; in the test on OVCAR-5 ovarian, 49.7 µM. Further, the TGI was above 94.8 µM with SK-MEL-28 melanoma, above 89.1 µM in the test with T-47D breast, 15.6 µM in the test on U251 CNS and 27.9 µM in the test on UACC-257 melanoma.

As to `CSc1ccc2c(c1)C(=O)c1c-2n(CCCN=[N+]=[N-])c(=O)c2cc([N+](=O)[O-])ccc12`, the TGI in the test on A498 renal is above 22.3 µM; in the test on HS 578T breast, above 100 µM; in the test with NCI-H23 lung, above 100 µM; with OVCAR-3 ovarian, above 89.5 µM; in the test with OVCAR-5 ovarian, above 100 µM; in the test with SK-MEL-28 melanoma, above 100 µM. In addition, the TGI in the test on T-47D breast, in the test with U251 CNS and in the test with UACC-257 melanoma was above 100 µM in each case. For the same compound, the GI50 was 1.17 µM with HL-60(TB) leukemia; above 61.1 µM in the test with HS 578T breast; 3.48 µM in the test with NCI-H23 lung; 8.87 µM in the test with OVCAR-3 ovarian; above 76.6 µM in the test on OVCAR-5 ovarian; 51.4 µM with SK-MEL-28 melanoma. For the same compound, the figures for the GI50 in the test on T-47D breast, with U251 CNS and in the test on UACC-257 melanoma were 4.58 µM, 1.1 µM and 39.9 µM, respectively.

`O=S(=O)(c1ccccc1)C1CN(Cc2ccccc2)CCN(Cc2ccccc2)C1`: the TGI in the test with A498 renal is above 100 µM; with HL-60(TB) leukemia it was 34.4 µM; in the test on HS 578T breast, above 100 µM; in the test on NCI-H23 lung, above 100 µM; in the test with OVCAR-3 ovarian it was above 95.8 µM; in the test on OVCAR-5 ovarian, above 100 µM. For the same compound, the TGI in the test on SK-MEL-28 melanoma, with T-47D breast, in the test on U251 CNS and in the test with UACC-257 melanoma was above 100 µM each time.

For `NNc1nc(-c2ccccn2)nc2sc3c(c12)CCCCCC3`, the GI50 is 1.86 µM in the test on A498 renal; 4.46 µM with HL-60(TB) leukemia; 11 µM in the test on HS 578T breast; 9 µM with NCI-H23 lung; 5.31 µM with OVCAR-3 ovarian; 8.61 µM in the test on OVCAR-5 ovarian. Moreover, the GI50 is 14.9 µM in the test with SK-MEL-28 melanoma, 5.01 µM with T-47D breast, 4.5 µM in the test on U251 CNS and 6.61 µM with UACC-257 melanoma. The TGI with A498 renal was 11.8 µM; in the test on HL-60(TB) leukemia, 36.3 µM; with HS 578T breast, above 100 µM; in the test on NCI-H23 lung, above 100 µM; with OVCAR-3 ovarian it was 93.7 µM; in the test with OVCAR-5 ovarian, above 100 µM. The TGI is above 100 µM in the test with SK-MEL-28 melanoma, above 100 µM in the test with T-47D breast, 49.6 µM in the test with U251 CNS and 77.4 µM with UACC-257 melanoma.

As to `O=CNc1ccc2c(c1)Cc1cc([N+](=O)[O-])ccc1-2`, the GI50 with A498 renal is 2.02 µM; with HL-60(TB) leukemia, 3.21 µM; in the test with HS 578T breast, 1.23 µM; in the test with NCI-H23 lung, 4.61 µM; with OVCAR-3 ovarian, 1.56 µM; with OVCAR-5 ovarian it was 4.2 µM. Also, the GI50 in the test with SK-MEL-28 melanoma was above 22.3 µM; in the test on T-47D breast it was above 100 µM; in the test on U251 CNS it was 2.97 µM; with UACC-257 melanoma it was 5.39 µM. The TGI is above 58.1 µM in the test on A498 renal; above 100 µM in the test with HL-60(TB) leukemia; 5.16 µM in the test with HS 578T breast; above 100 µM with NCI-H23 lung; above 100 µM in the test on OVCAR-3 ovarian; above 100 µM in the test on OVCAR-5 ovarian. The TGI with SK-MEL-28 melanoma, in the test on T-47D breast, in the test on U251 CNS and in the test on UACC-257 melanoma was above 100 µM throughout.

As for `N=C1N=Nc2nc(C3(c4nc5n(c4O)C(=N)N=N5)Cc4ccccc4C3=O)c(O)n21` (centres undefined), the TGI in the test with A498 renal is above 43.9 µM; with HL-60(TB) leukemia, above 100 µM; in the test on HS 578T breast, above 100 µM; in the test on NCI-H23 lung, above 100 µM; with OVCAR-3 ovarian, above 100 µM; in the test with OVCAR-5 ovarian it was above 100 µM. Further, the TGI with SK-MEL-28 melanoma, in the test with T-47D breast, in the test with U251 CNS and in the test with UACC-257 melanoma was above 100 µM each time. Moreover, the GI50 with U251 CNS was above 100 µM.

In the case of `COc1ccc2oc(-c3ccc(Cl)cc3)c(N3CCN(C)CC3)c2c1`, the GI50 with A498 renal was 1.53 µM; with HL-60(TB) leukemia it was 2.64 µM; with HS 578T breast, 1.71 µM; with NCI-H23 lung, 2.88 µM; in the test with OVCAR-3 ovarian, 1.95 µM; in the test on OVCAR-5 ovarian, 1.95 µM. The GI50 in the test on SK-MEL-28 melanoma was 1.62 µM; in the test with T-47D breast, 2.32 µM; in the test on U251 CNS it was 1.64 µM; in the test on UACC-257 melanoma, 1.68 µM. Moreover, the TGI in the test with A498 renal is 3.15 µM; with HL-60(TB) leukemia it was above 20 µM; with HS 578T breast, 3.86 µM; in the test on NCI-H23 lung, 8.99 µM; in the test with OVCAR-3 ovarian, 4.37 µM; with OVCAR-5 ovarian, 4.34 µM. Also, the TGI in the test on SK-MEL-28 melanoma amounted to 3.08 µM; in the test on T-47D breast, 6.78 µM; with U251 CNS it was 3.14 µM; in the test on UACC-257 melanoma, 3.43 µM.

Consider `CC1=NN(c2ccccc2)C(=O)C1C(=O)C(=O)Nc1ccc(C)cc1C` (centres undefined), for which the TGI in the test with A498 renal, in the test on HL-60(TB) leukemia, in the test on HS 578T breast, in the test with NCI-H23 lung, with OVCAR-3 ovarian and in the test with OVCAR-5 ovarian was above 100 µM in each case. The TGI in the test on SK-MEL-28 melanoma, in the test on T-47D breast, in the test with U251 CNS and with UACC-257 melanoma was above 100 µM throughout.

As to `Cn1cc(C2=C(c3cccc(NCC(O)CO)c3)C(=O)NC2=O)c2cc(Cl)ccc21` (centres undefined), the GI50 in the test on A498 renal was 0.0817 µM; with HL-60(TB) leukemia it was 6.9 µM; in the test with HS 578T breast, 0.214 µM; in the test on NCI-H23 lung, 4.64 µM; in the test on OVCAR-3 ovarian, 1.06 µM; in the test on OVCAR-5 ovarian it was 9.63 µM. The GI50 in the test with SK-MEL-28 melanoma is 5.68 µM; in the test with T-47D breast, 4.29 µM; in the test on U251 CNS, 2.33 µM; with UACC-257 melanoma, 5.51 µM. Also, the TGI in the test with A498 renal was 4.43 µM; with HL-60(TB) leukemia, 17.1 µM; in the test on HS 578T breast, 5.77 µM; in the test on NCI-H23 lung, 13.3 µM; with OVCAR-3 ovarian, 7.78 µM; in the test on OVCAR-5 ovarian, above 20.9 µM. The TGI worked out at 16.1 µM in the test on SK-MEL-28 melanoma, 15 µM in the test with T-47D breast, 13.7 µM with U251 CNS and 15.4 µM with UACC-257 melanoma.

Values taken from PubChem BioAssay (NCI).
